According to patent US6239171A, “Tocotrienols and tocotrienol-like compounds and methods for their use” (Lipogenics, Inc., priority 1998, dated 2001):

Columns and labels:
chickens [1] = test: Serum cholesterol, apolipoproteins, triglycerides and glucose in chickens fed supplemented diets; type: in vivo, chicken; conditions: control diet + 50 ppm, 4 weeks
In short: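 Six-week-old female White Leghorn chickens were fed chick mash with 20% rice bran, 5% oils (5% corn oil control, 4 weeks), or waxes, 50 ppm TRF or other fractions. Birds were fasted 14 h, or fasted 36 h then refed 48 h, before sacrifice at 0800. Serum lipids, apolipoproteins and glucose followed published methods; insulin, glucagon and TNF were measured by radioimmunoassay.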

[2] = system: cholesterol 7α-hydroxylase; test: Hepatic cholesterol 7α-hydroxylase activity in chickens fed supplemented diets; type: in vivo, chicken; conditions: control diet + 50 ppm, 4 weeks
Method: This example measured the effects of the TRF and its components on the hepatic enzymatic activity of HMG-CoA reductase and cholesterol 7α-hydroxylase. […] The amount of feed consumed ranged from 11.19-11.60 g per chicken and the feeding period was 4 weeks. The birds were fasted for a period of 36 hours and refed for 48 hours prior to sacrifice (at 0800 hours).

chickens [3] = test: Plasma thromboxane B2 and platelet factor 4 in chickens fed supplemented diets; type: in vivo, chicken; conditions: control diet + 50 ppm, 4 weeks
From the text: We next measured the effects of TRF and its components on serum levels of apolipoprotein (a)1, apolipoprotein B, triglycerides and glucose and the plasma levels of thromboxane B2 and platelet factor 4.

HMG-CoA reductase = biological target: T1, HMG-CoA reductase (Sus scrofa, UniProt Q1W675); test: Hepatic HMG-CoA reductase activity in hypercholesterolemic swine; type: in vivo; conditions: control diet + 50 ppm
T1 construct: The hepatic enzymatic activity of the HMG-CoA reductase decreased approximately 30%; from tissue; host or cells: pig liver, microsomes
T1 sequence (Q1W675 1-885): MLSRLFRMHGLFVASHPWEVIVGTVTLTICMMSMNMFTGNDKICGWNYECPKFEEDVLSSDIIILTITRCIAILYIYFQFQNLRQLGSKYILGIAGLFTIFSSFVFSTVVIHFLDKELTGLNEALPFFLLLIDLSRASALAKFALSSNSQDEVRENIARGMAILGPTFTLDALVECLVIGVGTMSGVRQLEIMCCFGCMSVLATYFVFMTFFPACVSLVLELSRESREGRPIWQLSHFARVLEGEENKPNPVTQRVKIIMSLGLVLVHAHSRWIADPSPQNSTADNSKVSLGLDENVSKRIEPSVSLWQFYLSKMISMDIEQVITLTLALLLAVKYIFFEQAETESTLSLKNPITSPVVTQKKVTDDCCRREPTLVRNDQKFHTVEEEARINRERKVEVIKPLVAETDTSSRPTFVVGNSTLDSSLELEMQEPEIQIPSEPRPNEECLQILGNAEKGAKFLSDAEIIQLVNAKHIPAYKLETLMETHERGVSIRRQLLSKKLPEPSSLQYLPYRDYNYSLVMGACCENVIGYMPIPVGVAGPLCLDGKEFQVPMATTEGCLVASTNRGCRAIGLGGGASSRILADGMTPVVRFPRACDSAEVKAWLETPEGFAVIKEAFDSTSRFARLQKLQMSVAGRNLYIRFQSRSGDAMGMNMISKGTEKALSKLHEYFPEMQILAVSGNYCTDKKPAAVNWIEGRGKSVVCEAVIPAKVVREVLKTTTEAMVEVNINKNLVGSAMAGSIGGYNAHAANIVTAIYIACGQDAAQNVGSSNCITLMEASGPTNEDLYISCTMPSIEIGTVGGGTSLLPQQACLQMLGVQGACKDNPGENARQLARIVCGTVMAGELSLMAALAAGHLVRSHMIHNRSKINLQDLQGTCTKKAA
From the text: All assays conducted on chicken or swine serum were done following the protocols described in A. A. Qureshi et al., "Lowering Of Serum Cholesterol In Hypercholesterolemic Humans By Tocotrienols" (Palmvitee), Am. J. Clin. Nutr., 53, pp. 1021S-26S (1991). All enzymatic assays were done following the protocols described in A. A. Qureshi et al., "Effects of Cereals and Culture Filtrate of Trichoderma viride on Lipid Metabolism of Swine", Lipids, 17, pp. 924 (1982). Plasma insulin, glucagon and TNF levels were measured using radioinnumoassay kits from Ventrex Laboratories, Inc. (Portland, Me.), ICN Biomedicals, Inc. (Costa Mesa, Calif.) and Genzyme Corp. (Cambridge, Mass.), respectively.
We next measured the effects of various tocotrienols from rice bran on HMG-CoA reductase and cholesterol 7α-hydroxylase in hypercholesterolemic swine. Since pigs are very similar to humans in their cholesterol metabolism, they provide a useful model from which to study hypercholesterolemia and related diseases. […] The serum cholesterol concentration in these swine is typically above 300-500 mg/dl, as compared to 120-160 mg/dl in normal adult swine. As a result, the pigs develop complicated atherosclerotic plaques that closely resemble advanced atherosclerotic lesions found in humans.
Each group of three 5-month old swine was administered either a control diet or a control diet supplemented with 50 ppm of TRF or 50 ppm of an individual tocotrienol. The samples were prepared as described in Example 11. After a 12 hour fast, serum and plasma samples were taken a 0 hrs, 21 days and 42 days from the start of the feeding period. After taking serum and plasma samples from the pigs at the end of the 42 day period, all of the swine were fasted for a total of 40 hours, followed by a 48 hour refeeding period. One swine from each group was sacrificed at that time and the liver, intestine, lung, heart, loin muscle, adipose tissue and ham muscle were removed.

chickens [4] = test: Antibody titers to sheep red blood cells in chickens; type: in vivo, chicken; conditions: control diet + 50 ppm, 4 weeks, sheep red blood cells i.p.

Q: What does the source list for `CC(C)=CCC/C(C)=C/CC/C(C)=C/CCC1(C)CCc2cc(O)c(C)c(C)c2O1` (centres unmarked) [γ-T3, γ-tocotrienol, reference compound]?
A: APO A1, percentage of control (chickens [1]): 99.57%; APO A1 in serum (chickens [1]): 139.80 mg/100 ml; APO B in serum (chickens [1]): 29.53 mg/100 ml; APO B, percentage of control (chickens [1]): 89.21%; DL-Cholesterol/Total Cholesterol (chickens [1]): 0.67; DL-Cholesterol/Total Cholesterol, percentage of control (chickens [1]): 114.50%; Glucose in serum (chickens [1]): 208.70 mg/100 ml; Glucose, percentage of control (chickens [1]): 93.05%; HDL-Cholesterol in serum (chickens [1]): 78.39 ± 0.96 mg/dL; HDL-Cholesterol, percentage of control (chickens [1]): 93.70%; HDL-Cholesterol/LDL-Cholesterol (chickens [1]): 2.09; HDL-Cholesterol/LDL-Cholesterol, percentage of control (chickens [1]): 137.50%; LDL-Cholesterol in serum (chickens [1]): 37.52 ± 0.81 mg/dL; LDL-Cholesterol, percentage of control (chickens [1]): 68.14%; Total Cholesterol in serum (chickens [1]): 116.86 ± 1.47 mg/dL; Total Cholesterol, percentage of control (chickens [1]): 81.85%; Triglycerides in serum (chickens [1]): 61.07 mg/100 ml; Triglycerides, percentage of control (chickens [1]): 82.49%; Cholesterol 7α-Hydroxylase, percentage of control [2]: 107.34%; Cholesterol 7α-hydroxylase [2]: 10.97 nmol/min/mg; Platelet Factor 4 (chickens [3]): 8.36 ng/mL; Platelet Factor 4, percentage of control (chickens [3]): 63.87%; Thromboxane B2 (chickens [3]): 19.22 pg/mL; Thromboxane B2, percentage of control (chickens [3]): 74.38%; HMG-CoA REDUCTASE (HMG-CoA reductase; 21 days): 300.72 pg/min/mg of microsomes; HMG-CoA REDUCTASE, percentage of 0-time value (HMG-CoA reductase; 21 days): 86.19%; HMG-CoA REDUCTASE (HMG-CoA reductase; 42 days): 280.88 pg/min/mg of microsomes; HMG-CoA REDUCTASE, Percentage of Control Activity (HMG-CoA reductase; 42 days): 73.31%; HMG-CoA REDUCTASE, percentage of 0-time value (HMG-CoA reductase; 42 days): 80.71%; IgG antibody titers in serum (chickens [4]): 1.28 Log 2; IgM antibody titers in serum (chickens [4]): 5.83 ± 1.53 Log 2; Total Ab titers in serum (chickens [4]): 6.60 ± 1.51 Log 2
